Active and inactive are the calls of the source.
Key:
[1] = molecular target: T1, Small ubiquitin-related modifier 1 (Homo sapiens, UniProt P63165); experiment: SUMO1 protein interaction blockers, potency – biochemical, fluorescence polarization, uHTS hits, dose response (AID 624382); type: functional; settings: read-out: IC50_Mean
[2] = molecular target: ADP-ribosylation factor GTPase-activating protein 1 (Rattus norvegicus, UniProt Q62848); experiment: Fluorescence polarization-based biochemical high throughput dose response screening assay to identify inhibitors of ADP-ribosylation factor GTPase activating protein 1 (ARFGAP1).; type: functional
[3] = molecular target: T1, Small ubiquitin-related modifier 1; experiment: SUMO1 protein-protein binding blockers, potency – biochemical, FRET, dose response (AID 624383); type: functional; settings: read-out: IC50_Mean
[4] = molecular target: Arf-GAP with SH3 domain, ANK repeat and PH domain-containing protein 1 (Homo sapiens, UniProt Q9ULH1); type: functional;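 also: biochemical fluorescence polarization dose–response screen measuring inhibition of ASAP1; ASAP1 GAP domain stimulating GTP hydrolysis by truncated human ARF1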
[5] = tested on: H9c2; experiment: cells; type: functional, cell-based; settings: Rattus norvegicus, H9c2, Myocardium;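 also: confirmatory concentration-response retest of ultra-high-throughput screening hits for modulation of myocardial damage; cell death induced by hydrogen peroxide oxidative stress; compound pretreatment for 60 min then peroxide exposure for 2 h; potency is for protecting the cells against peroxide damage rather than for killing them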
[6] = tested on: Vero; experiment: viability loss in Vero cells – cell-based, plate reader, cherry-pick samples, cytotoxicity control, dose response (AID 687020); type: functional; settings: Chlorocebus sabaeus
[7] = cytotoxicity in HEK293 background cells – cell-based, dry powder, set 2, counter-screen for EBV LMP1 inhibitor project, dose response (AID 624374); type: functional
[8] = molecular target: Botulinum neurotoxin type F (Clostridium botulinum, UniProt P30996); experiment: High-throughput multiplex microsphere dose response for inhibitors of toxin protease, specifically Botulinum neurotoxin light chain F protease, compounds from Cherry Pick 02.; type: functional; settings: read-out: EC50_MICROM
[9] = viability loss in THP-1 monocytes – THP-1 cells, cytotoxicity control for Vif-APOBEC3G degradation inhibitor project, dose response (AID 1117359); type: functional; settings: THP-1
[10] = HIV-1 Vif–A3G interaction blockers – biochemical, TR-FRET, GST-Vif 1-94, biotin-A3G peptide, dose response retest, primary screen (AID 1117319); type: functional;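 also: TR-FRET signal of purified GST-Vif binding a biotinylated A3G peptide; inhibitors lower the FRET signal by blocking Vif and A3G binding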
[11] = molecular target: T2, Short transient receptor potential channel 4 (Mus musculus, UniProt Q9QUQ5); experiment: calcium entry via TRPC4 opening agents – cell-based, HEK293 TRPC4/mu-opioid, Fluo-4 calcium, dose response (AID 434937); type: functional
T2 sequence (Q9QUQ5 whole entry): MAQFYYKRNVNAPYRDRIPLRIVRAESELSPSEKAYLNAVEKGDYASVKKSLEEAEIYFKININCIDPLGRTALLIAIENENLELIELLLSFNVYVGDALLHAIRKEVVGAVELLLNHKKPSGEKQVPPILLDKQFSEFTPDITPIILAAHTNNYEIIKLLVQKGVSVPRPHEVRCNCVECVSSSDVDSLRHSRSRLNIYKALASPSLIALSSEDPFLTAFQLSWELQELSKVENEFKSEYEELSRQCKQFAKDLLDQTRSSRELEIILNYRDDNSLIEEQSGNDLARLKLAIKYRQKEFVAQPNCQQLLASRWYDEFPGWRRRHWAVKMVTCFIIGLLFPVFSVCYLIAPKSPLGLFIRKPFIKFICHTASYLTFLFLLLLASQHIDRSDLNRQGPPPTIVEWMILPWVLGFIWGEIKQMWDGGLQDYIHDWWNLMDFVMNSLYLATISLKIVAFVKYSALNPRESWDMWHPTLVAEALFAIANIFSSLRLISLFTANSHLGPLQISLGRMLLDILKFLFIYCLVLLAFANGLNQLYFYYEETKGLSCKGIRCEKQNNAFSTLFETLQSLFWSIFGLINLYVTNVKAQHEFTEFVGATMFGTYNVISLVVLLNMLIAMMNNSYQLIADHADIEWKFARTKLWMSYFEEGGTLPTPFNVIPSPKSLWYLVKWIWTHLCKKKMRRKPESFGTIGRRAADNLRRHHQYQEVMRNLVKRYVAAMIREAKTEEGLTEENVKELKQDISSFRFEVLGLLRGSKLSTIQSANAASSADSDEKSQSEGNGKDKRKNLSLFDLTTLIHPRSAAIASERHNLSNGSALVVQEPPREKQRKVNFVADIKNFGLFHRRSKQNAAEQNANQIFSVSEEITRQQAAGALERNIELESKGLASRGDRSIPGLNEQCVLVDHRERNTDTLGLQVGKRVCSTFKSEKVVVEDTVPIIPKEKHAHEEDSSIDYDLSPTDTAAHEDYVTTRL

[12] = molecular target: Delta-type opioid receptor (Homo sapiens, UniProt P41143); experiment: Counterscreen for agonists of heterodimerization of the mu 1 (OPRM1) and delta 1 (OPRD1) opioid receptors: Luminescence-based cell-based high throughput dose response assay to identify agonists of OPRD1 homodimerization. [Related pubchem assays (depositor defined):AID504326, AID504355, AID504692, AID504904, AID504905]; type: functional
[13] = molecular target: Mu-type opioid receptor (Homo sapiens, UniProt P35372); experiment: Counterscreen for agonists of heterodimerization of the mu 1 (OPRM1) and delta 1 (OPRD1) opioid receptors: Luminescence-based cell-based high throughput dose response assay to identify agonists of OPRM1 homodimerization.; type: functional;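 also: U2OS cells expressing OPRM1 and beta-arrestin as split beta-galactosidase partners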
[14] = molecular target: 5-hydroxytryptamine receptor 5A (Homo sapiens, UniProt P47898); experiment: Counterscreen for agonists of OPRM1-OPRD1 heterodimerization: luminescence-based cell-based high throughput dose response assay to identify agonists of 5-hydroxytryptamine (serotonin) 5A receptor (HTR5A). [Related pubchem assays (depositor defined):AID504326, AID504355, AID504692, AID504904, AID504905]; type: functional
[15] = Late-stage results from the probe development effort to identify activators of OPRM1 and OPRD1 heterodimer formation: luminescence-based cell-based dose response counterscreen assay to determine cytotoxicity of test compounds.; type: functional
[16] = tested on: Streptococcus sp. 'group A'; experiment: Streptococcus pyogenes SK(-)GAS viability under kanamycin – luminescence, BacTiterGlo, confirmation, counter-screen for streptokinase expression inhibitor project, dose response (AID 1900); type: functional, organism-based
[17] = molecular target: T3, Streptokinase A (Streptococcus pyogenes serotype M1, UniProt P10520); experiment: viability-normalized secreted streptokinase activity reduction – plasminogen activation absorbance, OD405, dose response (AID 1914); type: functional, Streptococcus pyogenes M1 GAS;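 also: secreted streptokinase activity via plasminogen activation per viability signal from cell pellet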
T3 sequence (P10520 whole entry): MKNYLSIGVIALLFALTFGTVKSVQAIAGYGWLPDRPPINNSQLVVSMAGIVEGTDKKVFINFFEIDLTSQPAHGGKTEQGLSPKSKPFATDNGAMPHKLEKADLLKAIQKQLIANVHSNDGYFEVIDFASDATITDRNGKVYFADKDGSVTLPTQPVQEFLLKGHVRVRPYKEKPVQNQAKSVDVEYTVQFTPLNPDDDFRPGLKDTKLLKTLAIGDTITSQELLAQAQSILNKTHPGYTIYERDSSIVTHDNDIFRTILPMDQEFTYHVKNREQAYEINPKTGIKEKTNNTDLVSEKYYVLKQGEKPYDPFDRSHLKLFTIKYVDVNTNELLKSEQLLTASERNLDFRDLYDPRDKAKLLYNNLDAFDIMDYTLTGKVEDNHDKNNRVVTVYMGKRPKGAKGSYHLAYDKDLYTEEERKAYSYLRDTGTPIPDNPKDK

[18] = tested on: Streptococcus; experiment: GAS UMAA2166 growth inhibition – luminescence, BacTiterGlo, counter-screen for streptokinase expression inhibitor project, dose response (AID 1915); type: functional, organism-based;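 also: potency for reduction of bacterial viability or growth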
[19] = molecular target: T4, Heat shock factor protein 1 (Mus musculus, UniProt P38532); experiment: enhancement of HSF1-driven luciferase signal – cell-based, NIH3T3, luminescence, dose retest, confirmation (AID 435004); type: functional;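 also: stress induced by proteasome inhibitor MG132 added 30 min after compound; luciferase reporter driven by HSF1 response element in NIH3T3 cells; actives raise luminescence as potentiators of the MG132 stress response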
T4 sequence (P38532 whole entry): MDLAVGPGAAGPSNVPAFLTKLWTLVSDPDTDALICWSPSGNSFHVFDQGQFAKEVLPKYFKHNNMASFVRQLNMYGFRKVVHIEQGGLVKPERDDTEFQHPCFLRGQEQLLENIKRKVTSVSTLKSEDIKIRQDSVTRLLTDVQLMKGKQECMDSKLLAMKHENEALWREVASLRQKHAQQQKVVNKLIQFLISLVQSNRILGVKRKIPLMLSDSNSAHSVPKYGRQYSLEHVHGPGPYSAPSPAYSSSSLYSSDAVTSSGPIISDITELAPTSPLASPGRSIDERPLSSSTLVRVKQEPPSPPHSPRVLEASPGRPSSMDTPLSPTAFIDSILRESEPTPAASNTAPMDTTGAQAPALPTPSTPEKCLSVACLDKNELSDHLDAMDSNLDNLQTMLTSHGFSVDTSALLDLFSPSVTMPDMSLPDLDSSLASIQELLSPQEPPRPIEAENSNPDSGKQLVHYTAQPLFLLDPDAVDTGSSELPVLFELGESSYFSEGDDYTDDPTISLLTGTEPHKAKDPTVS

[20] = molecular target: T5, Cysteine protease ATG4B (Homo sapiens, UniProt Q9Y4P1); type: functional;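 also: Fluorescence-based dose-response confirmation assay measuring inhibition of ATG4B activity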
T5 sequence (Q9Y4P1 whole entry): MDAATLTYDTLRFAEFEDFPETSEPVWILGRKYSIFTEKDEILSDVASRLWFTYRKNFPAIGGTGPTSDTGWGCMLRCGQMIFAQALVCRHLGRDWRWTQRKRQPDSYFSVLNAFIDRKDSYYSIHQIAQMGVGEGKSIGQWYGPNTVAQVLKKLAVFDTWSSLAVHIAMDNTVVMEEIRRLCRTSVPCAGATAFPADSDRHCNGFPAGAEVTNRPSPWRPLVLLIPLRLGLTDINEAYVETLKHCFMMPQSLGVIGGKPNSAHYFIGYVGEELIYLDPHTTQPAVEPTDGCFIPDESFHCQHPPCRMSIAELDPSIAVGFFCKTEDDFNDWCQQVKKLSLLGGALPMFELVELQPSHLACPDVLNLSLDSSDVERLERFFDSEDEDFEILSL

[21] = molecular target: Phospholipase A2 (Homo sapiens, UniProt P04054); type: functional;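 also: confirmatory dose-response counterscreen on phospholipase A2, testing hits that came from an ultra-high-throughput screen for ATG4B inhibitors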
[22] = molecular target: T6, Methionyl-tRNA synthetase, putative (Trypanosoma brucei brucei, UniProt Q38C91); type: functional, Trypanosoma brucei brucei strain 927/4 GUTat10.1
[23] = Counterscreen for inhibitors of Trypanosoma brucei methionyl tRNA synthetase (MetRS): Luminescence-based cell-based high throughput dose response assay to identify compounds that are cytotoxic to Jurkat human T lymphocyte cells.; type: functional
[24] = molecular target: T6, Methionyl-tRNA synthetase, putative; type: functional, Trypanosoma brucei brucei strain 927/4 GUTat10.1; remark: listed apart in the source
[25] = mouse fibroblast viability loss – cell-based, cherry-pick samples, set 2, cytotoxicity control for T. cruzi growth inhibitor project, dose response (AID 651817); type: functional; settings: NIH3T3
[26] = intracellular Trypanosoma cruzi inhibitors in host cells – cell-based, plate reader, cherry-pick samples, set 3, dose response (AID 651818); type: functional;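 also: compounds incubated with infected cells for about four days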
[27] = tested on: INS1; experiment: INS-1E survival protection against cytokine death – cell-based, luminescence, retest, dose response (AID 449756); type: functional; settings: Rattus norvegicus;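 also: cell death triggered by IL-1 beta plus TNF-alpha plus IFN-gamma mixture; protective hits raise ATP signal compared with cytokine alone wells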
[28] = molecular target: Photoreceptor-specific nuclear receptor (Homo sapiens, UniProt Q9Y5X4); type: functional, cell-based;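 also: CHO-S cells with Gal4-NCOR and VP16-NR2E3 two-hybrid luciferase reporter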
[29] = molecular target: SWI/SNF-related matrix-associated actin-dependent regulator of chromatin subfamily A member 2 (Homo sapiens, UniProt P51531); experiment: Luminescence-based cell-based high throughput dose response assay to identify activators of the function of SWI/SNF related, matrix associated, actin dependent regulator of chromatin, subfamily a, member 2 (SMARCA2, BRM).; type: functional
[30] = viability loss in HEK293T cells – cell-based, cherry-picks, cytotoxicity control for HIV Vif inhibitor project, dose response (AID 652208); type: functional
[31] = Counterscreen for activators of the function of SWI/SNF related, matrix associated, actin dependent regulator of chromatin, subfamily a, member 2 (SMARCA2, BRM): Luminescence-based cell-based high throughput dose response assay to identify non-selective compounds using the VP16 reporter assay.; type: functional

T1 sequence (P63165 whole entry): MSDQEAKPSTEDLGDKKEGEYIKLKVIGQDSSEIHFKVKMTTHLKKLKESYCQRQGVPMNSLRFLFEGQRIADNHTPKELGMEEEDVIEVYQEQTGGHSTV
T6 sequence (Q38C91 whole entry): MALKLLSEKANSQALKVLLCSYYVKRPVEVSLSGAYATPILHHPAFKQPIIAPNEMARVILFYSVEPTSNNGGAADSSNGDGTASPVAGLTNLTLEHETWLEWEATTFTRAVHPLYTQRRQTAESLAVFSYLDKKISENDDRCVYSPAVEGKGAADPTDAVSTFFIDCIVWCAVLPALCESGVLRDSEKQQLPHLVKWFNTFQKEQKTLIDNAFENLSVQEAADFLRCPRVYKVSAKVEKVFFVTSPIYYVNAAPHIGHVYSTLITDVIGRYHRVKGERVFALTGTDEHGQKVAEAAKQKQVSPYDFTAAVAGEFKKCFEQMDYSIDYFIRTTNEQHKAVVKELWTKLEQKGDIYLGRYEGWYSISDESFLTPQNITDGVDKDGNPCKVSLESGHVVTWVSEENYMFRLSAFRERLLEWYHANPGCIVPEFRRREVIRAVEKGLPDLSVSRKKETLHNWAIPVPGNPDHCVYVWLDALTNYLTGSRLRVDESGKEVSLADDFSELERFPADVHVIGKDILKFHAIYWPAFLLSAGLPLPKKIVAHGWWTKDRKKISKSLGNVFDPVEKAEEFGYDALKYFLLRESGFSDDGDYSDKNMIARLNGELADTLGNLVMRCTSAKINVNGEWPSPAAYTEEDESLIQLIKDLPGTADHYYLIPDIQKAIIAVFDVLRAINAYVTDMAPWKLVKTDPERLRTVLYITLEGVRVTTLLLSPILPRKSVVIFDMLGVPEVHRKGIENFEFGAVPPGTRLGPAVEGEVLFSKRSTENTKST
Chain of SWI/SNF-related matrix-associated actin-dependent regulator of chromatin subfamily A member 2 (P51531 whole entry): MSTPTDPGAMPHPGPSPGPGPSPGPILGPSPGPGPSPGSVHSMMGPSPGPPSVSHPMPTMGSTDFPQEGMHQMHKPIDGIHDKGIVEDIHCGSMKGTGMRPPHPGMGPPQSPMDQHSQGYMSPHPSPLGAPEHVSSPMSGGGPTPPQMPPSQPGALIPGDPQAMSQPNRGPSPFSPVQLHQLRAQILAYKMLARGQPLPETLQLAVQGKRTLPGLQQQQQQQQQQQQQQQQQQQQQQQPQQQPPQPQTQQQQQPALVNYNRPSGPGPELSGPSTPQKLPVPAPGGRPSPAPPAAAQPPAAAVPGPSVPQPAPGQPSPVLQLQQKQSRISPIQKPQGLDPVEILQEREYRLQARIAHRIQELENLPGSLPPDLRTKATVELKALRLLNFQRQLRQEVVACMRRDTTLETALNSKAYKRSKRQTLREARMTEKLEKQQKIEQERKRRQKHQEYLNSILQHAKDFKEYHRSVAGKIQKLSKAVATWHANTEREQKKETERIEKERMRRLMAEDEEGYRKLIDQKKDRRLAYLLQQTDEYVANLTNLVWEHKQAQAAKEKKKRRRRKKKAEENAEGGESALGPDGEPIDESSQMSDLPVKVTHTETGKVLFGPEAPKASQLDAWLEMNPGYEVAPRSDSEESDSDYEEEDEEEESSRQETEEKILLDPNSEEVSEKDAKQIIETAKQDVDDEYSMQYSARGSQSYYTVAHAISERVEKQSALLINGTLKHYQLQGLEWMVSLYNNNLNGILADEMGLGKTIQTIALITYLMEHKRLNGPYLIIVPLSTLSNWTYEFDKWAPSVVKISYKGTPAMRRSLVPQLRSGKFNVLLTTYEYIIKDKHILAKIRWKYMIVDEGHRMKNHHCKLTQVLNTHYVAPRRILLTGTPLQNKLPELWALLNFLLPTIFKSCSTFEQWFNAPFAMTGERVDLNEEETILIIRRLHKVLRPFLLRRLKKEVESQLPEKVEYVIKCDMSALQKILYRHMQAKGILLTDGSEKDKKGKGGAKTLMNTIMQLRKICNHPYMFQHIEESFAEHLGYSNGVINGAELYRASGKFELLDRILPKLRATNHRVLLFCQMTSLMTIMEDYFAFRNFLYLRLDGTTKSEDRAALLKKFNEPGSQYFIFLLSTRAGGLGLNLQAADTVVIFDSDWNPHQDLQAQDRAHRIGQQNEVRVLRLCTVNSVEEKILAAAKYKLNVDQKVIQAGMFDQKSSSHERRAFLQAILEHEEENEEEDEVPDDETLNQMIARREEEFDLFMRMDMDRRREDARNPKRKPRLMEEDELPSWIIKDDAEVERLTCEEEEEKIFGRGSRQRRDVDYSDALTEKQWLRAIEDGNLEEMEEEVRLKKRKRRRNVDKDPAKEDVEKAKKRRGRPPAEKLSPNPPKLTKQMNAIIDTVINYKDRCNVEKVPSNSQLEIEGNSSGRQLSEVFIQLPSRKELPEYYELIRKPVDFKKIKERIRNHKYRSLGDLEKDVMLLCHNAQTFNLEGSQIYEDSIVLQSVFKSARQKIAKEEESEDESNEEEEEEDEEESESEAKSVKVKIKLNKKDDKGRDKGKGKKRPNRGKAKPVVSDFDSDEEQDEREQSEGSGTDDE
Chain of 5-hydroxytryptamine receptor 5A (P47898 whole entry): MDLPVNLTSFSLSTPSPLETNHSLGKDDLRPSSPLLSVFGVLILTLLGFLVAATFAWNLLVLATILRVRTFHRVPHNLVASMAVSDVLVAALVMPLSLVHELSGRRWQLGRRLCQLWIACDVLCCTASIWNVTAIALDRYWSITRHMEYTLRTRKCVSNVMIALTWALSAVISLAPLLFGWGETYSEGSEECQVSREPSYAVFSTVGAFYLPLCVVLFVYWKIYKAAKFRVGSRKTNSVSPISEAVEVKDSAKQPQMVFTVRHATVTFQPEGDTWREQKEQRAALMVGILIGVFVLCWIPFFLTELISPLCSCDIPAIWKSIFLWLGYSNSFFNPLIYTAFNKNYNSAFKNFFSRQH
Chain of Arf-GAP with SH3 domain, ANK repeat and PH domain-containing protein 1 (Q9ULH1 whole entry, the tested form may be a part): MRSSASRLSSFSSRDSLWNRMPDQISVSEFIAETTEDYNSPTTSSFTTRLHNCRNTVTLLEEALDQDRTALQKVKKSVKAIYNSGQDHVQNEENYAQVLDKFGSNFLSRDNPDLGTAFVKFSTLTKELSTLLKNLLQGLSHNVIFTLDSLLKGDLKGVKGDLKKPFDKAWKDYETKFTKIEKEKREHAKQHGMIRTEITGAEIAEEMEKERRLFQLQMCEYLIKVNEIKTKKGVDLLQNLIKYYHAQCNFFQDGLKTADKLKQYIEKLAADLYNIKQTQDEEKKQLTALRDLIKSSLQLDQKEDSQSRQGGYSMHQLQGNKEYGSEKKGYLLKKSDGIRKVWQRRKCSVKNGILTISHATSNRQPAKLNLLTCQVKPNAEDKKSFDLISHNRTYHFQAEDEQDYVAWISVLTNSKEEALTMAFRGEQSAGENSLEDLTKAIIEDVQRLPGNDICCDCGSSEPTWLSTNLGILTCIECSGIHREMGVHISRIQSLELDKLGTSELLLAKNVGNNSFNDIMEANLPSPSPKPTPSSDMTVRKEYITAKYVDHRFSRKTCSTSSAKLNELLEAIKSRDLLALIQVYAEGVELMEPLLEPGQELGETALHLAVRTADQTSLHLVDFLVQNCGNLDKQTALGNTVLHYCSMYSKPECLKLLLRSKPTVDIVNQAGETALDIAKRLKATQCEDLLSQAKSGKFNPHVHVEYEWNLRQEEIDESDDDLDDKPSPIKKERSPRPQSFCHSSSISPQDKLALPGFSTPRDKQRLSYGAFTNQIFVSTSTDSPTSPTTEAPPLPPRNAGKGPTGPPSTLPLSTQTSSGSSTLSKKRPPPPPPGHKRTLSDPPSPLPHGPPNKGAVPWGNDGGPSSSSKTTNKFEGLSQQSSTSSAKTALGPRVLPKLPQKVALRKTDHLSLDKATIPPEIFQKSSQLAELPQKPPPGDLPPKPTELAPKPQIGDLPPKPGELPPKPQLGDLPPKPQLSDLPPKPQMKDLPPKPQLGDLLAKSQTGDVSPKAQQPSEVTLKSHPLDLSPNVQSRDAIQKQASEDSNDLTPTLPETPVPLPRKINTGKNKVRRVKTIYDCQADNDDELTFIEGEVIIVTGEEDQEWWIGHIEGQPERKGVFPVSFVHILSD
Chain of Photoreceptor-specific nuclear receptor (Q9Y5X4 whole entry, the tested form may be a part): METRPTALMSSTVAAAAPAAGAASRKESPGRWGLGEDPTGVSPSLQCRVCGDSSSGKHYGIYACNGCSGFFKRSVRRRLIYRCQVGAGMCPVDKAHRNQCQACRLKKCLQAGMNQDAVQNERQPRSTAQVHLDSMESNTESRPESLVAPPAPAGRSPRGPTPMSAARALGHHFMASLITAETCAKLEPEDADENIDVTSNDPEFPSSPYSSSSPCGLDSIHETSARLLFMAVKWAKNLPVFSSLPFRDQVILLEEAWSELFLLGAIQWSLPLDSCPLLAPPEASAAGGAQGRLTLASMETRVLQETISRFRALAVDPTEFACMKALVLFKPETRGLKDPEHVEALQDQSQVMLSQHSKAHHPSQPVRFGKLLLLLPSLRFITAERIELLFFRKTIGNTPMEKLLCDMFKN
Chain of Delta-type opioid receptor (P41143 whole entry): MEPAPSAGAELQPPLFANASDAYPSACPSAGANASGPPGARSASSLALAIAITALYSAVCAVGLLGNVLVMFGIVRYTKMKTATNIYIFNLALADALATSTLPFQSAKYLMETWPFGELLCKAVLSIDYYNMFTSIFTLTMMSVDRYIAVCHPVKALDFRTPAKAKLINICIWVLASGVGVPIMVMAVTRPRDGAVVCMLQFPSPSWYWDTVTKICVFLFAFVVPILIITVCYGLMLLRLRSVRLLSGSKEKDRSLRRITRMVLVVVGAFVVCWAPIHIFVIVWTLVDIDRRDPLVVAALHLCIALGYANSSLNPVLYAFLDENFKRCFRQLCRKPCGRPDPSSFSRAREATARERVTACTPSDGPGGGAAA
Chain of Phospholipase A2 (P04054 whole entry): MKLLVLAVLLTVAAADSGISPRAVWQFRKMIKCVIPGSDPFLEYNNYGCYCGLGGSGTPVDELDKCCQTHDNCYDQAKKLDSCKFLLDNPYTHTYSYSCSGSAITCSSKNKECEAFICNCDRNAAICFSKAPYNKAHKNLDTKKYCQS

CC(=O)Nc1ccc(C(=O)Nc2nc(-c3cccnc3)cs2)cc1
IC50 [1]: > 66.6 µM (inactive) | IC50 [2]: 36.6 µM (inactive) | IC50 [3]: 12.1 µM (active) | IC50 [4]: 31.1 µM (inactive)

COc1ccc(N(CC(=O)NCCSc2ccccc2)S(=O)(=O)c2ccccc2)c(OC)c1
IC50 [5]: 10.8 µM (active) | AC50 [6]: 38.4 µM (active)

CS(=O)(=O)Nc1ccc2c(c1)[C@@H]1C[C@H](CC(=O)NCC3CC3)O[C@H](CO)[C@@H]1O2
AbsAC35 [7]: 85.99 µM

Cc1cccc2c1NC1(CCCC1)CC2C (stereo unspecified)
EC50 [8]: > 20 µM (inactive) | CC50 [9]: 24.6 µM (active) | IC50 [10]: > 100 µM (active)

CCOC(=O)C1(CCc2ccccc2)CCN(Cc2ccc(NC(C)=O)cc2)CC1
EC50 [11]: 0.0267 µM (active) | EC50 [12]: 4.5 µM (active) | EC50 [13]: 24.3 µM (inactive) | EC50 [14]: > 92.5 µM (inactive) | CC50 [15]: > 10 µM (inactive)

S=C(NCCSCc1ccc(Cl)c(Cl)c1)Nc1ccccc1
EC50 [16]: 11.2 µM (active) | EC50 [17]: 14.4 µM (active) | EC50 [18]: > 150 µM (not active) | EC50 [19]: > 260 µM (inactive) | IC50 [20]: 6.67 µM (active) | IC50 [21]: 3.24 µM (active) | IC50 [22]: 11.1 µM (inactive) | IC50 [23]: 47.9 µM (inactive) | IC50 [24]: 11.6 µM (inactive)

C[C@@H]1CN([C@@H](C)CO)C(=O)c2cccc(NC(=O)c3ccncc3)c2O[C@H]1CN(C)Cc1ccc(Cl)c(Cl)c1
AC50 [25]: 16.6 µM (active) | AC50 [26]: 0.08 µM (active)

Cc1cnc(NC(=O)CN2CCN(c3ccccn3)CC2)s1
AC50 [27]: 6.06 µM (active) | IC50 [28]: 1.17 µM (active) | EC50 [29]: > 91.2 µM (inactive) | AC50 [30]: > 52 µM (inactive) | EC50 [31]: > 91.2 µM (inactive)
